Test results: patent publication US20260216141A1, “NECROSIS INHIBITOR” (LINKGEVITY LIMITED, priority 2023, published 2026)
Entries after “also recorded” stand apart in the source; their conditions may differ. Like-named read-outs stand apart in the source and are kept apart here.

Assays:
Hepg2s spheroids = type: cell-based; conditions: for necrotic core formation / cell death necrosis relative to control: hypoxic and nutrient deprivation stress, DRAQ7, up to day 7
Experimental: Media changes were on alternative days. […] DMSO controls were added on each plate.
In some of the following Examples, human 3D cell culture was employed using liver Hepg2 cells. 3D cell culture is known to accurately replicate a cell's native environment. During embryonic development, cells aggregate and self-assemble into complex multi-cellular structures. The same aggregation process can likewise occur in in vitro culture systems if cell-cell cohesion is favoured over cell attachment to a substrate. The resulting 3D cell culture aggregates are known as spheroids. […] A standard method of spheroid formation in U-bottom low adhesion plates was used in the Examples herein.
This is because, as the spheroids grow, only the peripheral cells obtain oxygen and nutrients from the cell culture medium. The inner cells die from cell death necrosis, with the formation of large necrotic cores (observable though use of standard live dead stains). Thus, necrotic core formation represents a naturally occurring hypoxic and nutrient stress. This resembles multiple forms of shock in humans where blood flow carrying nutrients and oxygen is disrupted to certain cells, tissues and/or organs.

[1] = known in the art; cited from earlier work
[2] = test system: human intestinal fibroblast primary cell spheroids; assay: Human intestinal fibroblast primary cell spheroids, hydrogen peroxide oxidative stress, Calcein AM/Ethidium homodimer-1 stain; type: cell-based; conditions: hydrogen peroxide 800 μM for 6 hrs; preventative; Dantrolene 100 μM, retinoic acid 10, 20 or 40 μM, Nifedipine 10 μM
Experimental: Media changes were on alternative days. […] Drug treatment was done overnight prior stress. […] Two repeats of all conditions were performed. Each repeat used 31 organoids per condition. […] DMSO controls were assessed in parallel on each plate.
Thus far, the Examples have focused on hypoxic and nutrient deprivation stressors. To test other stressors, this Example uses an oxidative stress/toxin stress model, where human intestinal fibroblast (HIF) primary cell spheroids were exposed to hydrogen peroxide. The standard viability Calcein AM/Ethidium homodimer-1 staining was used as a marker of cell death. Following 800 μM hydrogen peroxide exposure for 6 hrs, just over 25% of cells were dead in the control (i.e. relative to Triton X-100 that kills all cells).

Compound	necrotic core formation / cell death necrosis relative to control (Hepg2s spheroids; Hepg2s spheroids)	other results
COc1ccc([C@@H]2N[C@H](C(=O)O)Cc3c2[nH]c2ccccc32)cc1CN1CCN(c2ccccc2F)CC1 (relative stereo) [cis-Ned 19]	no significant difference from the control; also recorded: no significant effect on level of cell death necrosis	–
COc1ccc([C@H]2N[C@H](C(=O)O)Cc3c2[nH]c2ccccc32)cc1CN1CCN(c2ccccc2F)CC1 (relative stereo) [trans-Ned 19]	no significant difference from the control; also recorded: no significant effect on level of cell death necrosis	–
CC(=O)OCOC(=O)CN(CC(=O)OCOC(C)=O)c1ccccc1OCCOc1ccccc1N(CC(=O)OCOC(C)=O)CC(=O)OCOC(C)=O [BAPTA-AM, 2-[N-[2-(acetyloxymethoxy)-2-oxoethyl]-2-[2-[2-[bis [2-(acetyloxymethoxy)-2-oxoethyl]amino]phenoxy]ethoxy]anilino]acetic acid acetyloxymethyl ester]	–	cell culture dosages considered maximum dosages which result in minimum toxicity [1]: 1 to 3 µM; toxicity at earlier time points (Hepg2s spheroids; time points earlier than day 7): some milder toxicity in some trials; necrosis suppression (Hepg2s spheroids; x8 dosage, 25 μM, day 7): significant necrosis suppression
O=C(O)CN(CCN(CC(=O)O)CC(=O)O)CCN(CC(=O)O)CC(=O)O [DTPA, diethylenetriaminepentaacetic acid]	–	cell culture dosages considered maximum dosages which result in minimum toxicity [1]: around 50 μM; toxicity at earlier time points (Hepg2s spheroids): some mild, but not statistically significant, toxicity; dosage needed to suppress necrosis (Hepg2s spheroids; Hepg2s spheroids, day 7): 4000 µM
O=C1CN(/N=C/c2ccc(-c3ccc([N+](=O)[O-])cc3)o2)C(O)=N1 [Dantrolene]	no significant difference from the control; also recorded: no significant effect on necrosis inhibition; also recorded: no significant effect on cell necrosis relative to control	necrosis following oxidative stress relative to control [2]: either no significant difference or a worse effect to control; necrotic core formation / cell death necrosis relative to control (Hepg2s spheroids; Hepg2s spheroids, listed as dantrolene): no significant difference to control
CCCCC/C=C\C/C=C\C/C=C\C/C=C\CCCC(=O)O [arachidonic acid]	No significant necrosis prevention and/or treatment	–
CC1(C)[C@@H](OC(=O)CCC(=O)O)CC[C@]2(C)[C@H]3C(=O)C=C4[C@@H]5C[C@@](C)(C(=O)O)CC[C@]5(C)CC[C@@]4(C)[C@]3(C)CC[C@@H]12 [carbenoxolone]	No significant necrosis prevention and/or treatment	–
O=C(O)c1ccccc1Nc1cccc(C(F)(F)F)c1 [flufenamic acid]	No significant necrosis prevention and/or treatment	–
CC1(C)[C@@H](O)CC[C@]2(C)[C@H]3C(=O)C=C4[C@@H]5C[C@@](C)(C(=O)O)CC[C@]5(C)CC[C@@]4(C)[C@]3(C)CC[C@@H]12 [glycyrrhetinic acid]	No significant necrosis prevention and/or treatment	–
FC(F)(F)C(Cl)Br (stereo not shown) [halothane]	No significant necrosis prevention and/or treatment	–
CCCCCCCO [heptanol]	No significant necrosis prevention and/or treatment	–
CCCCC/C=C\C/C=C\CCCCCCCC(=O)O [linoleic acid]	No significant necrosis prevention and/or treatment	level of cell death / toxicity in isolation relative to control (Hepg2s spheroids): greater toxicity relative to control
Cc1ccc(Cl)c(Nc2ccccc2C(=O)O)c1Cl [meclofenamic acid]	No significant necrosis prevention and/or treatment	–
OC(c1cc(C(F)(F)F)nc2c(C(F)(F)F)cccc12)C1CCCCN1 (stereo not shown) [mefloquine]	No significant necrosis prevention and/or treatment	–
O=C(O)c1cccnc1Nc1cccc(C(F)(F)F)c1 [niflumic acid]	No significant necrosis prevention and/or treatment	–
CCCCCCCCO [octanol]	No significant necrosis prevention and/or treatment	level of cell death / toxicity in isolation relative to control (Hepg2s spheroids; compound in isolation, most trials): greater toxicity relative to control
CCCCCCCC/C=C\CCCCCCCC(N)=O [oleamide]	No significant necrosis prevention and/or treatment	–
CCCCCCCC/C=C\CCCCCCCC(=O)O [oleic acid]	no significant difference from the control; also recorded: No significant necrosis prevention and/or treatment; also recorded: no significant effect on cell necrosis relative to control	–
CCN(CC)CCOC(=O)c1ccc(N)cc1 [procaine]	no significant difference from the controls; also recorded: no significant effect on level of cell death necrosis	–
C=C[C@H]1C[N@@]2CC[C@H]1C[C@@H]2[C@@H](O)c1ccnc2ccc(OC)cc12 [quinidine]	No significant necrosis prevention and/or treatment	–
C=C[C@H]1C[N@@]2CC[C@H]1C[C@H]2[C@H](O)c1ccnc2ccc(OC)cc12 [quinine]	No significant necrosis prevention and/or treatment	–
N.N.N.N.N.N.N.N.N.N.N.N.N.N.[Cl-].[Cl-].[Cl-].[Cl-].[Cl-].[Cl-].[O-2].[O-2].[Ru+3].[Ru+3].[Ru+4] [ruthenium red]	no significant difference from the controls; also recorded: no significant effect on level of cell death necrosis	–
ryanodine	no significant difference from the control; also recorded: no significant difference to control	–
